How the values were obtained:
Format in all cases: in vivo
[1] = test system: mice (strain C57BL/10); experiment: Protection of mice against lethal endotoxemia; details: for mice survived: intravenous
Description: (§1) Eight week old mice (strain C57BL/10) were allowed to rest for at least 7 days following their arrival and were sexually segregated and housed at 5 per cage with food and water ad libitum. Intravenous injection of a GTPase inhibiting compound (lipid X dissolved in saline as described above) and/or lipopolysaccharide was achieved by the retroorbital sinus route using a 27 gauge needle. No more than 0.1 ml of fluid was injected at a time. Just prior to injection, the mice were lightly anesthetized with ether. Following the injection, mice were observed every 0.5-6 hours and the time of death was recorded. In a few experiments, mice were injected by the intraperitoneal route with solutions of lipid X and/or lipopolysaccharide similar to those described above.
The lethal dose of E. coli endotoxin was determined both for the intravenous and for the intraperitoneal challenge. The lethal dose that killed 100% of the mice (LD100) was 250 µg intravenously and 500 µg intraperi toneally. (It is important to standardize each lot of endotoxin with each lot of mice.) To determine the approximate dose of lipid X needed to protect against a lethal challenge of endotoxin, mice were pretreated with lipid X intraperitoneally 2 hours before challenge with 1500 µg of endotoxin, which is 3 times the LD100 dose. Pretreatment of mice with lipid X appeared to prolong the time to death four-fold (from about 20 hours to 80 hours).
Because both lipid X and lipopolysaccharide (LPS) were given intraperitoneally in these preliminary experiments, the possibility existed of slow or variable rates of absorption. Consequently, an intravenous challenge route was selected to test for protective efficiency. Mice were given 750 µg of lipid X from 24 hours prior to 6 hours after endotoxin challenge with 1-2 LD100 doses. Forty-one percent of mice receiving 500 µg lipid X from 6 hours prior to endotoxin challenge through 1 hour after LPS challenge survived. When a lower endotoxin challenge dose (250 µg) was used, 81% of the mice survived if treated with lipid X from 1 hour prior to through 4 hours post LPS challenge. […] Perhaps this is due to the fact that those animals were anesthetized twice in a short period and received the toxic endotoxin challenge before receiving lipid X. The reversal of the lethal toxicity of endotoxin at times as late as 4 hours after endotoxin challenge is especially striking. […] By 4 hours after injection of the 250 µg of intravenous lipopolysaccharide, the mice had stopped normal behavior, i.e. nesting had stopped, decreased spontaneous activity occurred, and the animals were shaking.

[2] = test system: C57BL/10 mice; experiment: Toxicity of lipid X in mice
Description: as §1
(§2) To test for the toxicity of lipid X in mice, C57BL/10 mice were challenged with 750, 2000 or 5000 µg of lipid X intraperitoneally (12 mice) or with 750, 1500 or 3000 µg intravenously (7 mice). […] Consequently, lipid X appeared to be nontoxic in mice, as in sheep.

[3] = test system: sheep; experiment: Toxicity of lipid X in sheep; details: 40 sheep injected
Description: Mixed breed sheep weighing 30-70 kg were obtained from the University of Wisconsin Experimental Farms. Sheep were prepared as follows: at least 24 hours before each experiment, catheters were percutaneously placed in the pulmonary artery. Any other catheterizations that were required for infusion were done at this time. All studies were performed on awake, unrestrained sheep placed in portable stanchions with food and water ad libitum. Electronically calculated pulmonary artery pressures as well as heart rates were recorded at various intervals on a polygraph. To ensure a stable baseline prior to the injection of test compounds, approximately 1 hour of baseline measurements were recorded.
as §2
About 30 sheep were examined by Burhop with regard to lipid X toxicity.

Structure (SMILES): CCCCCCCCCCC[C@@H](O)CC(=O)N[C@H]1[C@@H](OP(=O)(O)O)O[C@H](CO)[C@@H](O)[C@@H]1OC(=O)C[C@H](O)CCCCCCCCCCC [lipid X]
- mice survived ([1]; endotoxin challenge 250 µg, lipid X from 1 hour prior through 4 hours post LPS challenge): 81%
- mice survived ([1]; printed '500 µg lipid X', from 6 hours prior to endotoxin challenge through 1 hour after): Forty-one
- prevention of lethal endotoxicity on late treatment ([1]; lipid X given 6 hours after lipopolysaccharide): appears to prevent lethal endotoxicity
- prolongation of the time to death ([1]; lipid X intraperitoneally 2 hours before 1500 µg endotoxin): four-fold
- time to death ([1]; lipid X intraperitoneally 2 hours before 1500 µg endotoxin (3 times LD100), control about 20 hours): ~80 h
- survival after lipid X alone ([2]; 750, 1500 or 3000 µg intravenously (7 mice)): All these mice lived
- survival after lipid X alone ([2]; 750, 2000 or 5000 µg intraperitoneally (12 mice)): All these mice lived
- adverse complications of lipid X administration [3]: no serious adverse complications

— patent EP0559845B1, “Use of compounds in preventing endotoxin shock” (priority 1991, dated 1992)
